For test [1], the target named is T1, Sentrin-specific protease 1 (Homo sapiens, UniProt Q9P0U3).
T1 sequence (Q9P0U3 whole entry): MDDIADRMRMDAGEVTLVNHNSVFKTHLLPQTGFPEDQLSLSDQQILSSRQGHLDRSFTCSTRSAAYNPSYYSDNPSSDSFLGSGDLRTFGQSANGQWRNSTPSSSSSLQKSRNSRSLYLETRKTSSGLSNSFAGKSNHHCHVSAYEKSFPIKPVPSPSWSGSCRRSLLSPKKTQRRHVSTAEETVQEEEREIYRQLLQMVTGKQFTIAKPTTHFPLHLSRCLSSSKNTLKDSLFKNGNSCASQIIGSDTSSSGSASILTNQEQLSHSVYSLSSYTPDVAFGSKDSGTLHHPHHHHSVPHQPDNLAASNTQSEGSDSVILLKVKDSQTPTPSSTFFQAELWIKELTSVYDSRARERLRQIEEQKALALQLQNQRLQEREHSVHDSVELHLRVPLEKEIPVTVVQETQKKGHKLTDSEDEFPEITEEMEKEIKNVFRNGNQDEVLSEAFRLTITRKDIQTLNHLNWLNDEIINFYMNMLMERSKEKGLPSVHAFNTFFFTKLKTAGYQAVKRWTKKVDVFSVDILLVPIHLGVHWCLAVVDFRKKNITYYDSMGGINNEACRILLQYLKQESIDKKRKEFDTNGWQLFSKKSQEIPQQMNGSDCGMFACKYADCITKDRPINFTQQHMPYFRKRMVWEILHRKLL
Nature of the test: Inhibition of SENP1 (unknown origin).

Test [2] addresses T1, Sentrin-specific protease 1. Description: Inhibition of human full-length recombinant SENP1.

The values that follow come from ChEMBL document CHEMBL5226359, “Recent research and development of inhibitors targeting sentrin-specific protease 1 for the treatment of cancers” (Eur J Med Chem, 2022).

The IC50 is the point on the concentration scale where inhibition reaches its midpoint.

In test [1], `CCCCOc1ccc(-c2nonc2NC(=O)COc2ccccc2C)cc1` yielded an IC50 of over 30 µM.

For `Cc1cc(OCC(=O)Nc2nonc2NC(=O)COc2ccc(Cl)c(C)c2)ccc1Cl`, the half-inhibitory concentration (IC50) in test [1] was over 30 µM. Regarding `O=C(Cc1ccccc1)Oc1c(OC(=O)Cc2ccccc2)c(-c2ccc(O)cc2)c(O)c(O)c1-c1ccc(O)cc1` [VIALININ A], the IC50 in test [2] came to 1.6 µM.
